Results published in paper PMC6155852, “Oral Administration of the Japanese Traditional Medicine Keishibukuryogan-ka-yokuinin Decreases Reactive Oxygen Metabolites in Rat Plasma: Identification of Chemical Constituents Contributing to Antioxidant Activity” (Molecules : A Journal of Synthetic Chemistry and Natural …, 2017).
“And” between values parts separate entries of the source, which are not always exact repeats. Identical values can stand only once. Like-named read-outs stand apart in the source and are kept apart here.

Tests used:
[1] = Plasma pharmacokinetics of KBGY constituents in rats after single oral administration of KBGY; format: in vivo, rat
Method: KBGY prepared in water was administered orally to 16 h fasted rats at a dose of 2 g/10 mL/kg (n = 3). […] Plasma was obtained by centrifugation at 1700× g for 15 min at 4 °C and stored at −80 °C until analysis.
For quantification of the dicarboxylic acid, 50 µL of standard solution, 100 µL of acetic acid (2%, v/v), and 650 µL of ethyl acetate were added to 200 µL of plasma samples, followed by mixing and centrifugation (7000× g, 5 min). The supernatants were collected and dried with a centrifugal evaporator and concentration system (CC-105; TOMY SEIKO Co., Tokyo, Japan). The residue was dissolved with 100 µL acetonitrile and 50 µL BF3/butanol solution; the dissolved solution was incubated for 1 h at 60 °C. The reaction was terminated by the addition of 50 µL of water and hexane, 150 µL of a saturated solution of sodium chloride, and 400 µL of hexane. The solution was vortexed for 2 min, and the supernatant was obtained by centrifugation (7000× g, 5 min). Liquid–liquid extraction was repeated twice. The corrected supernatant was dried with the centrifugal evaporator and concentration system. The dried residue was dissolved in 100 µL of acetonitrile containing 1 µg/mL of o-terphenyl (Tokyo Chemical Ind. Co.) as an internal standard (IS). Five microliters of the solution was then injected into the GC/MS system.
For quantification of volatile organic compounds (cinnamaldehyde, methyl cinnamate, 2-methoxycinnamaldehyde, mandelonitrile, salicylaldehyde, eugenol, cinnamyl alcohol, and 3-phenylpropyl acetate), 25 µL of standard solution, 25 µL of 2 µg/mL of 1,4-dibromobenzene (Tokyo Chemical Ind. Co.) as IS, and 500 µL of acetonitrile were added to 200 µL of plasma samples, followed by mixing and centrifugation (7000× g, 5 min). Five microliters of the supernatant was then injected into the GC/MS system.
For quantification of other compounds, 25 µL of standard solution, 25 µL of 2 ng/mL of atropine sulfate monohydrate (Wako Pure Chemical Ind.) or niflumic acid (Sigma-Aldrich) as IS, and 750 µL of methanol were added to 200 µL of plasma samples, followed by mixing and centrifugation (7000× g, 5 min). The supernatant was obtained and dried with the centrifugal evaporator and concentration system after 150 µL of propylene glycol (1%, v/v) was added to the supernatant. The dried residue was then dissolved in 60 μL of the HPLC mobile phase for each analytical method, and a 10 or 20 μL portion was injected into the LC/MS/MS system.
Plasma pharmacokinetic data were analyzed by noncompartmental modeling using Phoenix WinNonlin (version 6.3, Certara L.P., St. Louis, MO, USA) to determine various pharmacokinetic constants, including the maximum concentration (Cmax), time to maximum concentration (tmax), apparent elimination half-life (t1/2), and area under the plasma concentration-time curve from zero to last observation time (AUC0–last). The t1/2 was divided by loge^2/ke, where ke was the terminal elimination (at least three data points on the descending linear limb) rate constant.

[2] = Lipid hydroperoxide (LPO) generation assay (linoleic acid, Fenton reaction); format: biochemical
Method: Antioxidant assays using linoleic acid with a purity of 98.0% (Wako Pure Chemical Ind.) were performed using a described protocol with modifications. Briefly, 20 μL of 1% linoleic acid in methanol, 20 μL of 20 mmol/L ferrous chloride in water, 20 μL of test sample in DMSO, and 150 μL of a mixed solution (1:1) of methanol and 20 mmol/L phosphate buffer (pH 7.0) were added to 96-well polypropylene plates. After incubation at room temperature in the dark for 1 h, 10 μL of the reaction products were transferred to 200 μL of a methanol solution containing 39 mmol/L ammonium thiocyanate, 0.2 mmol/L ferrous chloride, and 0.01 mol/L hydrochloride. After incubation for 15 min, absorbance at 500 nm was measured using a microplate reader (Multiskan GO, Thermo Fisher Scientific Inc., Waltham, MA, USA). The concentration of lipid hydroperoxide (LPO) products was calculated conveniently using standard curves of serially-diluted linolein hydroperoxides (Cayman Chemical). The percentage of control was calculated using the following formula; (A − B)/(C − B) × 100, with A = test sample, B = linoleic acid alone, and C = vehicle control. Ascorbic acid was used as a reference agent.

[3] = ROS scavenging assay (hydrogen peroxide-dependent oxidation); format: biochemical; details: for IC50: concentration-dependency, Figure 4
Method: Hydrogen peroxide-dependent oxidation tests were performed using Oxiselect™ In Vitro ROS/RNS Assay kits (Cellbiolab Inc., San Diego, CA, USA) according to the manufacturer’s protocol. Briefly, a test sample was mixed with hydrogen peroxide (final concentration: 2.5 μmol/L) and incubated for 5 min. A fluorescent reaction was started by the addition of a fluorescent probe (dichrolodihydrofluorescin-DiOxyQ) at room temperature. After incubation for 15 min, relative fluorescent units (RFUs) were measured at […] using a fluorescent plate reader (Infinite M200; Tecan Trading AG, Männedorf, Switzerland). The percentage of control was calculated using the following formula; (A − B)/(C − B) × 100, with A = test sample, B = fluorescent probe alone, and C = vehicle control. (+)-Ascorbic acid was used as a reference agent.

[4] = 10 μmol/L, more than 100% = no activity
[5] = 10 μmol/L, C.I. = complete inhibition, more than 100% = no activity
[6] = rat plasma, single oral KBGY 2 g/kg
[7] = in vivo, rat plasma, single oral KBGY 2 g/kg, read-out: AUC0–last
[8] = in vivo, rat plasma, single oral KBGY 2 g/kg, read-out: Cmax
[9] = in vivo, rat plasma, single oral KBGY 2 g/kg, read-out: tmax
[10] = 1 μmol/L, C.I. = complete inhibition

Row | Compound | AUC(0-t) ([1]; rat, in vivo, po, 2 g/kg) [ng·h/mL] | Cmax ([1]; rat, in vivo, po, 2 g/kg) | Tmax ([1]; rat, in vivo, po, 2 g/kg) [h] | half-life ([1]; rat, in vivo, po, 2 g/kg) [h] | Antioxidant Activity (% of Control) LPO Generation [2, 4] | Antioxidant Activity (% of Control) ROS Scavenge [3, 5] | other results
1 | O=C/C=C/c1ccccc1 [Cinnamaldehyde] | 51.6 | 11.5 ng/mL and 87 nM | 1 | 5.21 | 109.8 ± 3.9 % of Control | 103.8 ± 1.1 % of Control | –
2 | COc1c(O)cc(C(=O)O)cc1O [4-O-Methylgallic acid] | 479 | 159 ng/mL and 863 nM | 1 | 0.906 | 105.4 ± 2.5 % of Control | 86.8 ± 0.2 % of Control | –
3 | C=C(CC[C@@H](C(=O)O)[C@H]1[C@H](O)C[C@@]2(C)C3=CC[C@H]4C(C)(C)[C@@H](O)CC[C@]4(C)C3=CC[C@]12C)C(C)C [Dehydrotumulosic acid] | – | – | – | – | 97.4 ± 3.1 % of Control | 106.0 ± 0.4 % of Control | AUC(0-t) ([1]; rat plasma, single oral KBGY 2 g/kg, read-out: AUC0–last): 39.5 ng·h/mL; Cmax ([1]; rat plasma, single oral KBGY 2 g/kg, read-out: Cmax): 15.5 ng/mL and 32 nM; half-life ([1]; rat plasma, single oral KBGY 2 g/kg, read-out: t1/2 (converted)): 3.81 h; Tmax ([1]; rat plasma, single oral KBGY 2 g/kg, read-out: tmax): 0.5 h
4 | C[C@]12C[C@@H](O)[C@@H]3C[C@@]1(O[C@@H]1O[C@H](CO)[C@@H](O)[C@H](O)[C@H]1O)[C@@]3(COC(=O)c1ccccc1)C(=O)O2 [Albiflorin] | – | – | – | – | 101.6 ± 2.2 % of Control | 104.2 ± 1.1 % of Control | AUC0–last [1, 6]: 64.9 ng·h/mL; Tmax [1, 6]: 0.5 h; t1/2 [1, 6]: 1.6 h
5 | O=C(O)CCCCCCCC(=O)O [Azelaic acid] | 39.9 | 54.7 ng/mL and 291 nM | 0.25 | – | 97.9 ± 4.4 % of Control | 100.4 ± 0.7 % of Control | –
6 | COc1cc(C(=O)O)cc(O)c1O [3-O-Methylgallic acid] | 58.6 | 12.7 ng/mL and 69 nM | 1 | 6.59 | – | C.I. | anti-ROS activity ([3]; 10 μmol/L): strong anti-ROS activity; IC50 [3]: 744 nM
7 | N#C[C@H](O[C@@H]1O[C@H](CO)[C@@H](O)[C@H](O)[C@H]1O)c1ccccc1 [Prunasin] | – | – | – | – | 97.9 ± 3.3 % of Control | 102.2 ± 1.1 % of Control | AUC(0-t) [1, 7]: 3700 ng·h/mL; Cmax [1, 8]: 1450 ng/mL and 4.91 µM; half-life ([1]; in vivo, rat plasma, single oral KBGY 2 g/kg, read-out: t1/2 (converted)): 1.16 h; Tmax [1, 9]: 1 h
8 | C=C(CC[C@@H](C(=O)O)[C@H]1[C@H](O)C[C@@]2(C)C3=C(CC[C@]12C)[C@@]1(C)CC[C@H](O)C(C)(C)[C@@H]1CC3)C(C)C [Tumulosic acid] | 700 | 200 ng/mL and 411 nM | 0.5 | 4.66 | 99.4 ± 2.3 % of Control | 105.9 ± 2.1 % of Control | –
9 | COc1cc([C@H]2OC[C@H]3[C@@H]2CO[C@@H]3c2cc(OC)c(O)c(OC)c2)cc(OC)c1O (racemic) [(±)-Syringaresinol] | – | – | 0.25 | – | 68.4 ± 3.3 % of Control | C.I. | AUC0–last ([1]; rat, in vivo, po, 2 g/kg): 0.0771 ng·h/mL; Antioxidant Activity (% of Control) LPO Generation ([2]; 1 μmol/L): 107.4 ± 4.2 % of Control; Antioxidant Activity (% of Control) LPO Generation ([2]; 10 μmol/L, more than 100% = no activity, listed as (±)-syringaresinol): less than 80 % of Control; Antioxidant Activity (% of Control) ROS Scavenge [3, 10]: 39.4 ± 2.4 % of Control; anti-ROS activity ([3]; 10 μmol/L): strong anti-ROS activity
10 | N#CC(O)c1ccccc1 (stereo not drawn) [Mandelonitrile] | – | – | – | – | 104.6 ± 1.2 % of Control | 99.7 ± 0.6 % of Control | AUC(0-t) [1, 7]: 251 ng·h/mL; Cmax [1, 8]: 165 ng/mL and 1.24 µM; Tmax [1, 9]: 1 h
11 | Oc1cc(O)c2c(c1)O[C@H](c1ccc(O)c(O)c1)[C@@H](O)C2 [(+)-Catechin] | – | – | 2 | – | 95.4 ± 3.9 % of Control | 7.3 ± 1.1 % of Control | AUC0–last ([1]; rat, in vivo, po, 2 g/kg): 65.1 ng·h/mL; anti-ROS activity ([3]; 10 μmol/L): strong anti-ROS activity; IC50 [3]: 621 nM
12 | OC[C@H](Cc1cccc(O)c1)[C@H](CO)Cc1cccc(O)c1 [Enterodiol] | 2.91 | 1.03 ng/mL and 3 nM | 0.5 | 27.3 | 84.9 ± 3.1 % of Control | C.I. | Antioxidant Activity (% of Control) LPO Generation ([2]; 1 μmol/L): 95.2 ± 4.4 % of Control; Antioxidant Activity (% of Control) ROS Scavenge [3, 10]: 67.6 ± 2.4 % of Control; anti-ROS activity ([3]; 10 μmol/L): strong anti-ROS activity
13 | C=C(CC[C@@H](C(=O)O)[C@H]1[C@H](O)C[C@@]2(C)C3=C(CC[C@]12C)[C@@]1(C)CC[C@H](OC(C)=O)C(C)(C)[C@@H]1CC3)C(C)C [Pachymic acid] | 5.29 | 1.21 ng/mL and 2 nM | 4 | – | – | – | –
14 | O=C(O)/C=C/c1ccccc1 [(E)-Cinnamic acid] | – | – | – | – | 104.3 ± 2.3 % of Control | 108.7 ± 2.2 % of Control | –
15 | O=C1O[C@H]([C@@H](O)CO)C(O)=C1O [(+)-Ascorbic acid, reference compound] | – | – | – | – | – | – | Antioxidant Activity (% of Control) ROS Scavenge ([3]; 114 μmol/L, reference agent): 14.5 ± 0.6 % of Control and 20.2 ± 0.6 % of Control
